This passage reports remaining binding and inhibition results from PMC6437697 (Journal of Medicinal Chemistry, 2019).

Common to all, as to assay: KINOMEscan
Type in all cases: binding

One experiment concerns the target T1, WEE1 (Homo sapiens, UniProt P30291).
T1 construct: purchased Eurofins DiscoverX KINOMEscan
Particulars: read-out: % control activity remaining.

The target of the next experiment is T2, TAOK1 (Homo sapiens, UniProt Q7L7X3).
T2 construct: purchased Eurofins DiscoverX KINOMEscan
T2 sequence (Q7L7X3 1-1001): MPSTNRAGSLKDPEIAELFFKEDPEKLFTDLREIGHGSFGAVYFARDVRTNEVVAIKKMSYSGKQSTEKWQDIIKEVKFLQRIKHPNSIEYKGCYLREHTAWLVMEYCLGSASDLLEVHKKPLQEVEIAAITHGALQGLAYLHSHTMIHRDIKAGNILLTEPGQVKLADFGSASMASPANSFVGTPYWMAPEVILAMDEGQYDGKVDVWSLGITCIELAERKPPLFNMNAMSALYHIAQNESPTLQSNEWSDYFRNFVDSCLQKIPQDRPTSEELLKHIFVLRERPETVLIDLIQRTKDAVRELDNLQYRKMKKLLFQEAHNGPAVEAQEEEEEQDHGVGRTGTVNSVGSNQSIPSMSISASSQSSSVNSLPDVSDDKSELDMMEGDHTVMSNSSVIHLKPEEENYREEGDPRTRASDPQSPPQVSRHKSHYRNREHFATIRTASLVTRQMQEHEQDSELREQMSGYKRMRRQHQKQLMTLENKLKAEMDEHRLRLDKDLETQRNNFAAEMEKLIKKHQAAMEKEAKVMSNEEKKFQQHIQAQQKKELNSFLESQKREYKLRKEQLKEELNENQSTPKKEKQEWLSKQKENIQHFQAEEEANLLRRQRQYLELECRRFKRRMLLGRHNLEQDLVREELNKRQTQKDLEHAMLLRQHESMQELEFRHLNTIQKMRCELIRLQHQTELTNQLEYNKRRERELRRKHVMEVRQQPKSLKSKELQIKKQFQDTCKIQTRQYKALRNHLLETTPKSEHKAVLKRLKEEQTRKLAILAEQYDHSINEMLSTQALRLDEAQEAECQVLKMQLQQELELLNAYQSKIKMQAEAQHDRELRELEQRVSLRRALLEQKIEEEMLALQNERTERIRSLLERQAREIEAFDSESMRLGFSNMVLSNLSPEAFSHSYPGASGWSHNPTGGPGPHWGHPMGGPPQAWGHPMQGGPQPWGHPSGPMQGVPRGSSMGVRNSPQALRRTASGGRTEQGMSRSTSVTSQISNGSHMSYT
To be noted: read-out: % control activity remaining.

Another experiment deals with T3, PRKCD (Homo sapiens, UniProt Q05655).
T3 construct: purchased Eurofins DiscoverX KINOMEscan
T3 sequence (Q05655 whole entry): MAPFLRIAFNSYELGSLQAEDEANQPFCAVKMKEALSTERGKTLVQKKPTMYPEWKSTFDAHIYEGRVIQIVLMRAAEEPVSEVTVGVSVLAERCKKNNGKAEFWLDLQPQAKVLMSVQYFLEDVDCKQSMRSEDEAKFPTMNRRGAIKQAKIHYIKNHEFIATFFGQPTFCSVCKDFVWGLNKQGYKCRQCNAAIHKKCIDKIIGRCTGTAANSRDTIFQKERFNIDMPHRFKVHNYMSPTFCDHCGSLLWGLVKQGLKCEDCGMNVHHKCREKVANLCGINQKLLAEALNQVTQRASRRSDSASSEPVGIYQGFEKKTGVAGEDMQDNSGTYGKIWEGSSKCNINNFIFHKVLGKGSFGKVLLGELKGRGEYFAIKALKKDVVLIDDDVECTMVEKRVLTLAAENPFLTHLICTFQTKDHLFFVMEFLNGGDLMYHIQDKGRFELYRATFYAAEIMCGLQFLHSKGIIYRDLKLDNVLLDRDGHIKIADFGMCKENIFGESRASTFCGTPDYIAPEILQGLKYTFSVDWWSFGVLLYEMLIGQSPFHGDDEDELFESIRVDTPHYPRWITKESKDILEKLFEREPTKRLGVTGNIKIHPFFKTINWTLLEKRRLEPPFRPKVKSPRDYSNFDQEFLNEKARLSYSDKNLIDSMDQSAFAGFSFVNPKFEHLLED
To be noted: read-out: % control activity remaining.

The next experiment deals with T4, CTK (Homo sapiens, UniProt P42679).
T4 construct: purchased Eurofins DiscoverX KINOMEscan
T4 sequence (P42679 1-507): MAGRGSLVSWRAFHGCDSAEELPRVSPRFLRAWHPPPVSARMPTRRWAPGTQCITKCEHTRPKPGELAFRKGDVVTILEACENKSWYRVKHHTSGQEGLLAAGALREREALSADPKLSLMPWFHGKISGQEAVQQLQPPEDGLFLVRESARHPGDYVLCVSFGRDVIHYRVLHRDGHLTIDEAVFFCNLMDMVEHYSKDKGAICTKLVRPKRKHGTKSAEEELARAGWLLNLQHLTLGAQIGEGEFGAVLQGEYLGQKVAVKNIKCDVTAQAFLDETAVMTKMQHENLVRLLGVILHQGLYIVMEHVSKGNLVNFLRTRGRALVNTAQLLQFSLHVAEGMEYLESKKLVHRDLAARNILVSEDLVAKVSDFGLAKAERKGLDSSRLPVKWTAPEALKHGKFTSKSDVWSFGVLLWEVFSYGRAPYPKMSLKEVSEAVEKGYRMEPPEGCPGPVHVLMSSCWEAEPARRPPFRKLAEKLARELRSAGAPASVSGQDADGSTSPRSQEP
To be noted: read-out: % control activity remaining.

Experiment [1] has as its target T5, ABL1(F317I)-phosphorylated (Homo sapiens, UniProt P00519, F317I).
T5 construct: purchased Eurofins DiscoverX KINOMEscan
Particulars: read-out: % control activity remaining.

A further experiment concerns the target T6, FGR (Homo sapiens, UniProt P09769).
T6 construct: purchased Eurofins DiscoverX KINOMEscan
Particulars: read-out: % control activity remaining.

In the next experiment the target is T7, TRPM6 (Homo sapiens, UniProt Q9BX84).
T7 construct: purchased Eurofins DiscoverX KINOMEscan
T7 sequence (Q9BX84 whole entry): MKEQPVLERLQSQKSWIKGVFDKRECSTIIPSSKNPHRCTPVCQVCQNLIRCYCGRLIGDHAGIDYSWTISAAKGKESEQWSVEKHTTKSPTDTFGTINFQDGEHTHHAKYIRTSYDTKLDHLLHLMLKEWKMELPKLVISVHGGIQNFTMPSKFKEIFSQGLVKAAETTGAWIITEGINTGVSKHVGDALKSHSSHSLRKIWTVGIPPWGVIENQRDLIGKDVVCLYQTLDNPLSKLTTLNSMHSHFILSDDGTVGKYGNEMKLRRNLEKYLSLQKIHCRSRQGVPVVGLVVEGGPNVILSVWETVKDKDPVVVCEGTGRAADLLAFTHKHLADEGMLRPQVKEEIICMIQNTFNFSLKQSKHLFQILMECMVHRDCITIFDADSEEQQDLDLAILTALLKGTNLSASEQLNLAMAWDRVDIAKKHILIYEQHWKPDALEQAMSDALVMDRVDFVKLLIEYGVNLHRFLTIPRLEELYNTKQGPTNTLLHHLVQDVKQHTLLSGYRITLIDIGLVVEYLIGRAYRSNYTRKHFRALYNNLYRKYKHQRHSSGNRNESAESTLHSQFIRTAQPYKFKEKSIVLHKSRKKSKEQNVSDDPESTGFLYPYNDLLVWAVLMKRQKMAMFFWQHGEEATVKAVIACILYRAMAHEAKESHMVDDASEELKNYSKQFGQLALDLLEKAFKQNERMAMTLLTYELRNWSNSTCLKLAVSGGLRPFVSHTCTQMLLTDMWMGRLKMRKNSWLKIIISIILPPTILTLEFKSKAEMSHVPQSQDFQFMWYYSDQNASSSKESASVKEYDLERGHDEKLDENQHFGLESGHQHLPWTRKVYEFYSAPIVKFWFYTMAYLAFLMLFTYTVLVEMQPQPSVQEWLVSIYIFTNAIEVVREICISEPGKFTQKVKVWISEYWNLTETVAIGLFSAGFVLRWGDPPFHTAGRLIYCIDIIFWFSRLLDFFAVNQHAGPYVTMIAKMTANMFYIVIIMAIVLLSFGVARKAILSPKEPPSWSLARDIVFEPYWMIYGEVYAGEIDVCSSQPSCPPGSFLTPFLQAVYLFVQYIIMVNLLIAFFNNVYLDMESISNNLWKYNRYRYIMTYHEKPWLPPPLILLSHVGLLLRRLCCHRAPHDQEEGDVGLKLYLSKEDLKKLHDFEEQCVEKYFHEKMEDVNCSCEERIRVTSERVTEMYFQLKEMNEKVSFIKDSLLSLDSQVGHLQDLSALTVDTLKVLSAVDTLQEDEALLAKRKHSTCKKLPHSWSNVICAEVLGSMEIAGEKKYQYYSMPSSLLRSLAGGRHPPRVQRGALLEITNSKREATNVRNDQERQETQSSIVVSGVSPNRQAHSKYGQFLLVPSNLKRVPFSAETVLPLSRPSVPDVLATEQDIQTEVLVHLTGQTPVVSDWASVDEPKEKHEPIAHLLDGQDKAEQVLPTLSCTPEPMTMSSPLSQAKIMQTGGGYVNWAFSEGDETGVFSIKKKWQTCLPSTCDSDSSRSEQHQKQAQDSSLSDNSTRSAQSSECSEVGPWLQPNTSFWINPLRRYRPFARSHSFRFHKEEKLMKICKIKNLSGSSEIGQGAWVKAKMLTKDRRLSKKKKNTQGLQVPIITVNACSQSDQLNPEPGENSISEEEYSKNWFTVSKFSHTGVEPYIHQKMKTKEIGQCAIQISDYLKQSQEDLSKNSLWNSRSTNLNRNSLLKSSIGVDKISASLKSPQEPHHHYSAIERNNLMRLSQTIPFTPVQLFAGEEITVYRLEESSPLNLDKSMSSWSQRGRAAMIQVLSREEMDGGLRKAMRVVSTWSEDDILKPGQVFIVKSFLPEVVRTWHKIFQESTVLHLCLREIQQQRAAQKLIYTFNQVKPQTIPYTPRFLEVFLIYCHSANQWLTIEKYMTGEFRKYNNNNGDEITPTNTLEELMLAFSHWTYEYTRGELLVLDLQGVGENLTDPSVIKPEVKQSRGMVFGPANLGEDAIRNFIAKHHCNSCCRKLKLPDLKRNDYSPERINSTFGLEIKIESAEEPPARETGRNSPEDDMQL
To be noted: read-out: % control activity remaining.

In a further experiment the target is T8, MLCK (Homo sapiens, UniProt Q32MK0).
T8 construct: purchased Eurofins DiscoverX KINOMEscan
T8 sequence (Q32MK0 1-819): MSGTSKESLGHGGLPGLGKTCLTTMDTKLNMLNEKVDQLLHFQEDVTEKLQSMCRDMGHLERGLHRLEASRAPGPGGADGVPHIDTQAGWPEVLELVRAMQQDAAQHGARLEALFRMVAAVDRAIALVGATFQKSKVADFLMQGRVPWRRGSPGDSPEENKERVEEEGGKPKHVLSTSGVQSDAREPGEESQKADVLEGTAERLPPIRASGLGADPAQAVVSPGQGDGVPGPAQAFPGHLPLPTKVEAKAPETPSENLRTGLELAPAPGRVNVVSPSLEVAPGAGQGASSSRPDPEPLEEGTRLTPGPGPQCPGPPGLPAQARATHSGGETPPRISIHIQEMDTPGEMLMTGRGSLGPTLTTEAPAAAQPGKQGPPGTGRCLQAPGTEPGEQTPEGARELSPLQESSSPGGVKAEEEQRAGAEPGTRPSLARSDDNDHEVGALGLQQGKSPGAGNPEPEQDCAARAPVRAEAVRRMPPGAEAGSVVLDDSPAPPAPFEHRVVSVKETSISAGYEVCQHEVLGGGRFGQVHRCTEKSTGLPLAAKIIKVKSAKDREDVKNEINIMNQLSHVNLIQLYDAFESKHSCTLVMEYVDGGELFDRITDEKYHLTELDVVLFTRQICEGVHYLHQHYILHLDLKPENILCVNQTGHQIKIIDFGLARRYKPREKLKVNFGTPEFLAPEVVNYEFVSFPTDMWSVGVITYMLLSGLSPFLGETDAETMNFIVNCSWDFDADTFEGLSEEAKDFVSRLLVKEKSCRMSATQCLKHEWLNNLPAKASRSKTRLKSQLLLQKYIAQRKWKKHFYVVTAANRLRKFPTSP
To be noted: for remaining binding at 1 µM: read-out: % control activity remaining.

In another experiment the target is T9, KIT (Homo sapiens, UniProt P10721).
T9 construct: purchased Eurofins DiscoverX KINOMEscan
To be noted: read-out: % control activity remaining.

T5 sequence (P00519 whole entry F317I): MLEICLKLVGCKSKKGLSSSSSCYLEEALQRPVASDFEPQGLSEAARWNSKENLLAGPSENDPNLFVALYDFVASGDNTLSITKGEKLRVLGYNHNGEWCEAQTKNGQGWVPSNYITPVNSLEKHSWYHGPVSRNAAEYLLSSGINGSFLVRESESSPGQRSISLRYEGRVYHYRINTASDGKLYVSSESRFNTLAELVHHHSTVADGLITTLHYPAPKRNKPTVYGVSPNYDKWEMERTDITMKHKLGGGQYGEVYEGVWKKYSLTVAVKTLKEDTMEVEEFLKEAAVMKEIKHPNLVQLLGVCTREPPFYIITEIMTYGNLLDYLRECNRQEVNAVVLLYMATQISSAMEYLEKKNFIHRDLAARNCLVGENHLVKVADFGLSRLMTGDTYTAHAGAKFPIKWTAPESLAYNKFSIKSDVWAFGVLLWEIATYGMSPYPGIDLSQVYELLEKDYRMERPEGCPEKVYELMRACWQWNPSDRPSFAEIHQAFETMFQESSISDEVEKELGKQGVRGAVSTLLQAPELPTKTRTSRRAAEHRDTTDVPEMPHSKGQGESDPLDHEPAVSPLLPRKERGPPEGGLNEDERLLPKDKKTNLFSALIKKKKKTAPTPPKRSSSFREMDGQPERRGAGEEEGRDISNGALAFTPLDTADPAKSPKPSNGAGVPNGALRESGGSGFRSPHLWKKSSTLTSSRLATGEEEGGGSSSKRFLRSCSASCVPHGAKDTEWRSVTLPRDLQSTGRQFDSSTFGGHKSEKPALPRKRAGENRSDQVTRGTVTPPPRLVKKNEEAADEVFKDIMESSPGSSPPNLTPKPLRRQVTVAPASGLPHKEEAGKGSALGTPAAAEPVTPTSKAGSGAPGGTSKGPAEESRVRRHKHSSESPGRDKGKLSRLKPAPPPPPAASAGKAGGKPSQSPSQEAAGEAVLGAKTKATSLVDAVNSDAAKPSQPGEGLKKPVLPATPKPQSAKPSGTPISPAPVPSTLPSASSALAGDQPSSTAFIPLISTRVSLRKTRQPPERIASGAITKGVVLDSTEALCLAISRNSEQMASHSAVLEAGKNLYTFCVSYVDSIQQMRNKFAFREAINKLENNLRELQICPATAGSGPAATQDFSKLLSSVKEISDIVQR
T6 sequence (P09769 whole entry): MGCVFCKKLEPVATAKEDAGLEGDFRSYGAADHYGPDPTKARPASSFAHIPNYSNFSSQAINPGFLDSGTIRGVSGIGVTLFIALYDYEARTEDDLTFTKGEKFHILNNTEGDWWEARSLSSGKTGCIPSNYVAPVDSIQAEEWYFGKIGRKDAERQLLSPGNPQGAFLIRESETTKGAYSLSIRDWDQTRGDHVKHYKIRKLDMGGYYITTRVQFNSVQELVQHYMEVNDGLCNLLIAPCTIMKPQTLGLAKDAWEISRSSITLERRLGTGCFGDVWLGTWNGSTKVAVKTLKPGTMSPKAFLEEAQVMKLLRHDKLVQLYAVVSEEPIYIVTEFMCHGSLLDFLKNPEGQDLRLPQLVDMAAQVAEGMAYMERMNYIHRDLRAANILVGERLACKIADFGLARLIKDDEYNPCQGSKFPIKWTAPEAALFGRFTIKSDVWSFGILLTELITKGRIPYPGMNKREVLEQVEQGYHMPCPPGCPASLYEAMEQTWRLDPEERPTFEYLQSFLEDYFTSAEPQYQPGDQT
T1 sequence (P30291 whole entry): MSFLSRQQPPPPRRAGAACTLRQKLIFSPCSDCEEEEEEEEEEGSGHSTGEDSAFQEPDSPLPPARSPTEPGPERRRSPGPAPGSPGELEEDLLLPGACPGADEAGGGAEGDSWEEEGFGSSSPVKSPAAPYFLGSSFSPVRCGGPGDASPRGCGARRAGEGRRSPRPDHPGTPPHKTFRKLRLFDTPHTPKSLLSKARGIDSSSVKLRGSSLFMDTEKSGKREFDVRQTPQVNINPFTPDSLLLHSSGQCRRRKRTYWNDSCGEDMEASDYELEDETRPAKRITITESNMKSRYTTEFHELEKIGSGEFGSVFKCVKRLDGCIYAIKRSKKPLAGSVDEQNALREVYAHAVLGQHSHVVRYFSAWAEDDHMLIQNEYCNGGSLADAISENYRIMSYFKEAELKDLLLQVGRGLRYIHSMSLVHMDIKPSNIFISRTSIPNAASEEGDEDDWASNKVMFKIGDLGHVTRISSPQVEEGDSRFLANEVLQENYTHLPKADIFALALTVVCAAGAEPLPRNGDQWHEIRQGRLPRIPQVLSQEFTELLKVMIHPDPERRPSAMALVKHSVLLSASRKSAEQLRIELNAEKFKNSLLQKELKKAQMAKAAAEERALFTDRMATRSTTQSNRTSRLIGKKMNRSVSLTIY

For the molecule `Clc1cc(NCC2CC2)c2ncc(-c3ccc4[nH]ncc4c3)n2n1` [compound 2, 6-Chloro-N-(cyclopropylmethyl)-3-(1H-indazol-5-yl)imidazo[1,2-b]pyridazin-8-amine], the remaining binding at 1 µM amounted to 100% at WEE1; 93% at TAOK1; 93% on PRKCD; 91% at CTK; 93% in [1]; 75% at FGR. The values for the remaining binding at 1 µM at TRPM6, at MLCK and on KIT were 100%, 80% and 1.6%, respectively.

With `O=C(CN1CCOCC1)N[C@H]1CC[C@H](Nc2cc(Cl)nn3c(-c4ccc5[nH]ncc5c4)cnc23)CC1` [compound 26], the remaining binding at 1 µM on WEE1 stood at 100%; at TAOK1, 85%; on PRKCD it was 90%; on CTK, 95%; in experiment [1], 8.1%; on FGR, 93%. For the same molecule, the remaining binding at 1 µM on TRPM6 was 92%; on MLCK, 6.6%; on KIT, 0%. The inhibition at 1 µM at MLCK (read-out: Probe binding inhibited) was greater than 90%.

On to `CN1CCC(CNc2cc(Cl)nn3c(-c4cc5nc(Nc6ccccc6)[nH]c5cc4F)cnc23)CC1` [compound 31, 6-Chloro-3-(6-fluoro-2-(phenylamino)-1H-benzo[d]imidazol-5-yl)-N-((1-methylpiperidin-4-yl)methyl)imidazo[1,2-b]pyridazin-8-amine], for which the remaining binding at 1 µM on WEE1 stood at 100%; at TAOK1, 75%; on PRKCD, 62%; on CTK, 69%; in [1] it was 76%; at FGR, 100%. The remaining binding at 1 µM on TRPM6 amounted to 85%; at MLCK, 89%; at KIT, 68%.
